31 molecules from patent US12208088B2 (Genentech, Inc., priority 2018, dated 2025) can be followed below.

As a reminder, the Ki is a dissociation constant, usually derived from enzyme kinetics or from competition with a known ligand. Lower therefore signals higher affinity.

In this experiment the target is HPK1 (Homo sapiens (Human), UniProt Q92918). Description: HPK1 Lantha binding assay ("Lanth"). The note with it: binding assays; Morrison Ki fit. The method, boiled down: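 Ki values are from Morrison-equation fitting of 665/615 nm TR-FRET signals, taking enzyme level, tracer level and tracer Kd into account. The assay mix held HPK1 (2 nM), Eu-anti-GST antibody (2 nM) and Tracer222 (15 nM). Incubations were two 1 h steps at 23 °C, on 5-fold serial compound dilutions.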

SMILES strings stand for the structures.

Sequence of HPK1 (Q92918 1-346 limits assumed): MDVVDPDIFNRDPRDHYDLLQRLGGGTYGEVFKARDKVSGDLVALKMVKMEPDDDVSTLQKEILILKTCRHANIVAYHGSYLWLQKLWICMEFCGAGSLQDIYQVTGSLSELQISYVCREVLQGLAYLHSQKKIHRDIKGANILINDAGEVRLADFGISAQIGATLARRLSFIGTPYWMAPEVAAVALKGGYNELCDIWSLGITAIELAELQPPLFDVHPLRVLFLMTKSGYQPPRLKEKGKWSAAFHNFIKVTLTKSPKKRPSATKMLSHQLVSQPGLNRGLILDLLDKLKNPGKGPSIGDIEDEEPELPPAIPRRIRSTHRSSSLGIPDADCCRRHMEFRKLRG

For `CN(C)C(=O)c1c(N)ccc(-c2cnc3c(c2)[C@]2(CN3)C[C@H](O)C2)c1F` [Compound 77a, 6-Amino-2-fluoro-3-((1r,3r)-3-hydroxy-1′,2′-dihydrospiro[cyclobutane-1,3′-pyrrolo[2,3-b]pyridin]-5′-yl)-N,N-dimethylbenzamide], the Ki was determined as 160 nM.
For the molecule `CN(C)C(=O)c1c(N)ccc(-c2cnc3c(c2)[C@]2(CN3)C[C@@H](O)C2)c1F` [Compound 77b, 6-Amino-2-fluoro-3-((1s,3s)-3-hydroxy-1′,2′-dihydrospiro[cyclobutane-1,3′-pyrrolo[2,3-b]pyridin]-5′-yl)-N,N-dimethylbenzamide], the Ki was 217 nM.
The molecule `CN(C)C(=O)c1c(N)ccc(-c2cnc3c(c2)[C@]2(CN3)C[C@](C)(O)C2)c1F` [Compound 78a, 6-Amino-2-fluoro-3-((1r,3r)-3-hydroxy-3-methyl-1′,2′-dihydrospiro[cyclobutane-1,3′-pyrrolo[2,3-b]pyridin]-5′-yl)-N,N-dimethylbenzamide] showed a Ki of 927 nM.
The value for `CN(C)C(=O)c1c(N)ccc(-c2cnc3c(c2)[C@]2(CN3)C[C@@](C)(O)C2)c1F` [Compound 78b, 6-Amino-2-fluoro-3-((1s,3s)-3-hydroxy-3-methyl-1′,2′-dihydrospiro[cyclobutane-1,3′-pyrrolo[2,3-b]pyridin]-5′-yl)-N,N-dimethylbenzamide] was 165 nM.
As to `CN(C)C(=O)c1c(N)ccc(-c2cnc3c(c2)C2(CNC(=O)C2)CN3)c1F` (stereo not shown) [Compound 79, 6-Amino-2-fluoro-N,N-dimethyl-3-(5-oxo-1′,2′-dihydrospiro[pyrrolidine-3,3′-pyrrolo[2,3-b]pyridin]-5′-yl)benzamide], affinity was put at a Ki of 659 nM.
The figure for `CO[C@H]1C[C@]2(CNc3ncc(-c4ccc(N)c(C(=O)N(C)C)c4F)c(Cl)c32)C1` [Compound 80a, 6-Amino-3-((1r,3r)-4′-chloro-3-methoxy-1′,2′-dihydrospiro[cyclobutane-1,3′-pyrrolo[2,3-b]pyridin]-5′-yl)-2-fluoro-N,N-dimethylbenzamide] is 97.6 nM; for `CO[C@H]1C[C@@]2(CNc3ncc(-c4ccc(N)c(C(=O)N(C)C)c4F)c(Cl)c32)C1` [Compound 80b, 6-Amino-3-((1s,3s)-4′-chloro-3-methoxy-1′,2′-dihydrospiro[cyclobutane-1,3′-pyrrolo[2,3-b]pyridin]-5′-yl)-2-fluoro-N,N-dimethylbenzamide] it is 129 nM; for `CC(=O)NC1CCC2(CNc3ncc(-c4ccc(N)c(C(=O)N(C)C)c4F)c(Cl)c32)C1` (stereo not shown) [Compound 83, 3-(3-Acetamido-4′-chloro-1′,2′-dihydrospiro[cyclopentane-1,3′-pyrrolo[2,3-b]pyridin]-5′-yl)-6-amino-2-fluoro-N,N-dimethylbenzamide] it is 208 nM.
Molecule `CN(C)C(=O)c1c(N)ccc(-c2cnc3c(c2Cl)[C@]2(CC[C@H](n4cncn4)C2)CN3)c1F` [Compound 85a, 6-Amino-3-((1R,3S)-4′-chloro-3-(1H-1,2,4-triazol-1-yl)-1′,2′-dihydrospiro[cyclopentane-1,3′-pyrrolo[2,3-b]pyridin]-5′-yl)-2-fluoro-N,N-dimethylbenzamide] yielded a Ki of 48.1 nM.
The figure for `CN(C)C(=O)c1c(N)ccc(-c2cnc3c(c2Cl)[C@]2(CC[C@@H](n4cncn4)C2)CN3)c1F` [Compound 85c, 6-Amino-3-((1R,3R)-4′-chloro-3-(1H-1,2,4-triazol-1-yl)-1′,2′-dihydrospiro[cyclopentane-1,3′-pyrrolo[2,3-b]pyridin]-5′-yl)-2-fluoro-N,N-dimethylbenzamide] is 149 nM; for `C[C@@H]1C[C@@]12CNc1ncc(-c3ccc(N)c(C(=O)N(C)C)c3F)cc12` [Compound 86c, 6-Amino-2-fluoro-N,N-dimethyl-3-((1R,2R)-2-methyl-1′,2′-dihydrospiro[cyclopropane-1,3′-pyrrolo[2,3-b]pyridin]-5′-yl)benzamide] it is 3.25 nM.
On to `CN(C)C(=O)c1c(N)ccc(-c2cnc3c(c2)[C@]2(CN3)C[C@@](O)(C(F)(F)F)C2)c1F` [Compound 87a], for which the affinity, expressed as Ki, was 358 nM.
Take `CN(C)C(=O)c1c(N)ccc(-c2cnc3c(c2)[C@]2(CN3)C[C@@H](n3cncn3)C2)c1F` [Compound 88a]: the Ki is 126 nM.
Take `CN(C)C(=O)c1c(N)ccc(-c2cnc3c(c2Cl)[C@]2(CC[C@@H](n4nccn4)C2)CN3)c1F` [Compound 89c, 6-Amino-3-((1R,3R)-4′-chloro-3-(2H-1,2,3-triazol-2-yl)-1′,2′-dihydrospiro[cyclopentane-1,3′-pyrrolo[2,3-b]pyridin]-5′-yl)-2-fluoro-N,N-dimethylbenzamide]: affinity was put at a Ki of 23.1 nM.
In the case of `CN(C)C(=O)c1c(N)ccc(-c2cnc3c(c2Cl)[C@]2(CC[C@H](n4ccnn4)C2)CN3)c1F` [Compound 90a], the affinity corresponds to a Ki of 51.8 nM.
In turn, `CC(=O)N1CC2(CNc3ncc(-c4ccc(N)c(C(=O)N(C)C)c4F)cc32)C1` [Compound 93, 3-(1-Acetyl-1′,2′-dihydrospiro[azetidine-3,3′-pyrrolo[2,3-b]pyridin]-5′-yl)-6-amino-2-fluoro-N,N-dimethylbenzamide] showed a Ki of 916 nM.
`CN(C)C(=O)c1c(N)ccc(-c2cnc3c(c2)C2(CN3)CC(=CC#N)C2)c1F` (stereo not shown) [Compound 94a, (s,E)-6-Amino-3-(3-(cyanomethylene)-1′,2′-dihydrospiro[cyclobutane-1,3′-pyrrolo[2,3-b]pyridin]-5′-yl)-2-fluoro-N,N-dimethylbenzamide] showed a Ki of 73.6 nM.
Regarding `CN(C)C(=O)c1c(N)ccc(-c2cnc3c(c2)[C@]2(CN3)C[C@@H](CC#N)C2)c1F` [Compound 95a, 6-Amino-3-((1r,3r)-3-(cyanomethyl)-1′,2′-dihydrospiro[cyclobutane-1,3′-pyrrolo[2,3-b]pyridin]-5′-yl)-2-fluoro-N,N-dimethylbenzamide], affinity was put at a Ki of 120 nM.
Consider `CN(C)C(=O)c1c(N)ccc(-c2cnc3c(c2)[C@]2(CN3)C[C@@H](C#N)C2)c1F` [Compound 96a], for which the affinity corresponds to a Ki of 124 nM.
The figure for `CN(C)C(=O)c1c(N)ccc(-c2cnc3c(c2)[C@]2(CN3)C[C@@H](C(N)=O)C2)c1F` [Compound 97a] is 50.7 nM.
Regarding `CN(C)C(=O)c1c(N)ccc(-c2cnc3c(c2)C2(CN3)CC(=CC(N)=O)C2)c1F` (stereo not shown) [Compound 101, 6-Amino-3-(3-(2-amino-2-oxoethylidene)-1′,2′-dihydrospiro[cyclobutane-1,3′-pyrrolo[2,3-b]pyridin]-5′-yl)-2-fluoro-N,N-dimethylbenzamide], the Ki stood at 55.8 nM.
`CN(C)C(=O)c1c(N)ccc(-c2cnc3c(c2)[C@]2(CN3)C[C@H](CC(N)=O)C2)c1F` [Compound 102a, 6-Amino-3-((1r,3r)-3-(2-amino-2-oxoethyl)-1′,2′-dihydrospiro[cyclobutane-1,3′-pyrrolo[2,3-b]pyridin]-5′-yl)-2-fluoro-N,N-dimethylbenzamide] yielded a Ki of 67 nM.
As for `CN(C)C(=O)c1c(N)ccc(-c2cnc3c(c2Cl)C2(CCC(=CS(C)(=O)=O)C2)CN3)c1F` (stereo not shown) [Compound 103, 6-Amino-3-(4′-chloro-3-((methylsulfonyl)methylene)-1′,2′-dihydrospiro[cyclopentane-1,3′-pyrrolo[2,3-b]pyridin]-5′-yl)-2-fluoro-N,N-dimethylbenzamide], the Ki is 24.1 nM.
In turn, `CN(C)C(=O)c1c(N)ccc(-c2cnc3c(c2Cl)C2(CCC(=CC#N)C2)CN3)c1F` (stereo not shown) [Compound 104, 6-Amino-3-(4′-chloro-3-(cyanomethylene)-1′,2′-dihydrospiro[cyclopentane-1,3′-pyrrolo[2,3-b]pyridin]-5′-yl)-2-fluoro-N,N-dimethylbenzamide] gave a Ki of 13.1 nM.
`CN(C)C(=O)c1c(N)ccc(-c2cnc3c(c2Cl)[C@]2(CC[C@](O)(CC#N)C2)CN3)c1F` [Compound 109a, 6-Amino-3-((1R,3R)-4′-chloro-3-(cyanomethyl)-3-hydroxy-1′,2′-dihydrospiro[cyclopentane-1,3′-pyrrolo[2,3-b]pyridin]-5′-yl)-2-fluoro-N,N-dimethylbenzamide]: affinity was put at a Ki of 25.3 nM.
As to `CN(C)C(=O)c1c(N)ccc(-c2cnc3c(c2Cl)C2(CCC(=CC(N)=O)C2)CN3)c1F` (stereo not shown) [Compound 110, 6-Amino-3-(3-(2-amino-2-oxoethylidene)-4′-chloro-1′,2′-dihydrospiro[cyclopentane-1,3′-pyrrolo[2,3-b]pyridin]-5′-yl)-2-fluoro-N,N-dimethylbenzamide], the Ki was 4.5 nM.
For the molecule `CN(C)C(=O)c1c(N)ccc(-c2cnc3c(c2)[C@]2(CC[C@H](O)CC2)CN3)c1F` [Compound 111a, 6-Amino-2-fluoro-3-((1s,4s)-4-hydroxy-1′,2′-dihydrospiro[cyclohexane-1,3′-pyrrolo[2,3-b]pyridin]-5′-yl)-N,N-dimethylbenzamide], affinity was put at a Ki of 48.3 nM.
Regarding `CN(C)C(=O)c1c(N)ccc(-c2cnc3c(c2)[C@]2(CC[C@@H](O)CC2)CN3)c1F` [Compound 111b, 6-Amino-2-fluoro-3-((1r,4r)-4-hydroxy-1′,2′-dihydrospiro[cyclohexane-1,3′-pyrrolo[2,3-b]pyridin]-5′-yl)-N,N-dimethylbenzamide], the affinity corresponds to a Ki of 172 nM.
The figure for `CN(C)C(=O)c1c(N)ccc(-c2cnc3c(c2Cl)C2(C=C(c4cccnc4)CC2)CN3)c1F` (stereo not shown) [Compound 112, 6-Amino-3-(4′-chloro-3-(pyridin-3-yl)-1′,2′-dihydrospiro[cyclopentane-1,3′-pyrrolo[2,3-b]pyridin]-2-en-5′-yl)-2-fluoro-N,N-dimethylbenzamide] is 6.6 nM; for `COc1c(-c2ccc(N)c(C(=O)N(C)C)c2F)cnc2c1[C@]1(CC[C@@H](O)CC1)CN2` [Compound 113a, 6-Amino-2-fluoro-3-((1r,4r)-4-hydroxy-4′-methoxy-1′,2′-dihydrospiro[cyclohexane-1,3′-pyrrolo[2,3-b]pyridin]-5′-yl)-N,N-dimethylbenzamide] it is 39 nM.
For the molecule `COc1c(-c2ccc(N)c(C(=O)N(C)C)c2F)cnc2c1[C@]1(CC[C@H](O)CC1)CN2` [Compound 113b, 6-Amino-2-fluoro-3-((1s,4s)-4-hydroxy-4′-methoxy-1′,2′-dihydrospiro[cyclohexane-1,3′-pyrrolo[2,3-b]pyridin]-5′-yl)-N,N-dimethylbenzamide], the Ki is 15.1 nM.
